Patent US7351700B2, “Aminomethylpyrimidines as allosteric enhancers of the GABAB receptors” (Hoffmann-La Roche Inc., priority 2004, dated 2008)

Columns and labels:
[1] = PO, cited from earlier work
[2] = rats; cited from earlier work
[3] = biological target: T1, human GABABR1aR2a (Homo sapiens, UniProt O75899+Q9UBS5); experiment: Intracellular Ca2+ mobilization assay (FLIPR) in CHO-GABABR1aR2a-Gα16 cell; format: cell-based; settings: for GABA shift Log [EC50(GABA + 10 μM cp)/EC50(GABA alone)]: 10 μM enhancer applied 15 min before GABA (0.0003-30 μM); for Emax: enhancer 0.001-30 μM in presence of 10 nM GABA (EC10), normalized to 10 μM GABA = 100%, 10 nM GABA = 0%, read-out: Emax (%) at 10 nM GABA alone = 0% 10 μM GABA alone = 100%; for EC50: enhancer concentration-response in presence of 10 nM GABA
T1 construct: expressed in transfected cells
Method: Intracellular Ca^2+ Mobilization Assay
The Chinese Hamster Ovary (CHO) cells stably expressing human GABABR1aR^2a and Gα16 were seeded at 5×10^4 cells/well in the poly-D-lysine treated, 96-well, black/clear-bottomed plates (BD Biosciences, Palo Alto, Calif.). 24 h later, the cells were loaded for 90 min at 37° C. with 4 μM Flou-4 acetoxymethyl ester (Catalog No. F-14202, Molecular Probes, Eugene, Oreg.) in loading buffer (1×HBSS, 20 mM HEPES, 2.5 mM Probenecid). Hanks' Balanced Salt Solution (HBSS) (10×) (catalog No. 14065-049) and HEPES (1M) (catalog No. 15630-056) were purchased from Invitrogen, Carlsbad, Calif. Probenecid (250 mM) (catalog No. P8761) was from Sigma, Buchs, Switzerland. The cells were washed five times with loading buffer to remove excess dye and intracellular calcium mobilization, [Ca^2+ ]i were measured using a Fluorometric Imaging Plate Reader (FLIPR, Molecular Devices, Menlo Park, Calif.) as described previously (Porter et al., Br. J. Pharmacol., 128, 13-20, 1999). The enhancers were applied 15 min before the application of the GABA. For GABA shift assay, concentration-response curves of GABA (0.0003-30 μM) were determined in the absence and presence of 10 μM enhancer. The GABA-shift is defined as Log [EC50 (GABA+10 μM enhancer)/EC50 (GABA alone)]. The % maximum enhancing effect (% Emax) potency (EC50 value) of each enhancer was determined from concentration-response curve of the enhancer (0.001-30 μM) in the presence of 10 nM (GABA) (EC10). Responses were measured as peak increase in fluorescence minus basal, normalized to the maximal stimulatory effect induced by 10 μM GABA alone (considered 100%) and 10 nM GABA alone (considered 0%). The data were fitted with the equation Y=100+(Max −100)/(1+(EC50/[drug])^n) where Max is the maximum effect, EC50 the concentration eliciting a half-maximum effect and n the Hill slope.

[4] = elevated plus maze (rat), elevated zero maze (mice and rats), stress-induced hyperthermia (mice); cited from earlier work
[5] = passive avoidance behavioral test in mice and rats; cited from earlier work

T1 sequence (Q9UBS5 15-961 limits assumed): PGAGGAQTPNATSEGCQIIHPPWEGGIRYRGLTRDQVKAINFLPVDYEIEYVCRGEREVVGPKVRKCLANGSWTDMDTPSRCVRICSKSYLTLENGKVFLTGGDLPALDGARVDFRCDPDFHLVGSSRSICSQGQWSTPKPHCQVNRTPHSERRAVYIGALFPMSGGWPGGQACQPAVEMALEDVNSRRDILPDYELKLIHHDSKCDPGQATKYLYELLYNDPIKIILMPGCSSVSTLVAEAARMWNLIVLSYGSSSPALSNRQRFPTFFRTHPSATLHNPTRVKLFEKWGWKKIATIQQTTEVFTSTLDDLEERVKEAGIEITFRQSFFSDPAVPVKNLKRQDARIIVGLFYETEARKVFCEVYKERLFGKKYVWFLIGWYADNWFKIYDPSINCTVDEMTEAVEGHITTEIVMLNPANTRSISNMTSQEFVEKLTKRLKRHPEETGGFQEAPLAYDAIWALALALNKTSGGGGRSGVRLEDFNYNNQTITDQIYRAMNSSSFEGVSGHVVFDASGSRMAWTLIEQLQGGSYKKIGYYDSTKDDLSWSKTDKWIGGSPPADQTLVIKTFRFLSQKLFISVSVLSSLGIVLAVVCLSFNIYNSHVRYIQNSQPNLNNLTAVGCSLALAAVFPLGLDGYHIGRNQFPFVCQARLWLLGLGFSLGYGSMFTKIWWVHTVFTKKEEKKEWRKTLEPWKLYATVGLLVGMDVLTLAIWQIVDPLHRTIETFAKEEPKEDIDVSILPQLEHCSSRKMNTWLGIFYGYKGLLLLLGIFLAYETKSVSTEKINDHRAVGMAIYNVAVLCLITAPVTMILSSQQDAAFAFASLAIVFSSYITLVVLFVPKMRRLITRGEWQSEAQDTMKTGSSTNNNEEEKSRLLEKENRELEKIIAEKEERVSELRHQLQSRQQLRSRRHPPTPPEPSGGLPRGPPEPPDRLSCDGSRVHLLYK
T1 sequence (O75899 42-941): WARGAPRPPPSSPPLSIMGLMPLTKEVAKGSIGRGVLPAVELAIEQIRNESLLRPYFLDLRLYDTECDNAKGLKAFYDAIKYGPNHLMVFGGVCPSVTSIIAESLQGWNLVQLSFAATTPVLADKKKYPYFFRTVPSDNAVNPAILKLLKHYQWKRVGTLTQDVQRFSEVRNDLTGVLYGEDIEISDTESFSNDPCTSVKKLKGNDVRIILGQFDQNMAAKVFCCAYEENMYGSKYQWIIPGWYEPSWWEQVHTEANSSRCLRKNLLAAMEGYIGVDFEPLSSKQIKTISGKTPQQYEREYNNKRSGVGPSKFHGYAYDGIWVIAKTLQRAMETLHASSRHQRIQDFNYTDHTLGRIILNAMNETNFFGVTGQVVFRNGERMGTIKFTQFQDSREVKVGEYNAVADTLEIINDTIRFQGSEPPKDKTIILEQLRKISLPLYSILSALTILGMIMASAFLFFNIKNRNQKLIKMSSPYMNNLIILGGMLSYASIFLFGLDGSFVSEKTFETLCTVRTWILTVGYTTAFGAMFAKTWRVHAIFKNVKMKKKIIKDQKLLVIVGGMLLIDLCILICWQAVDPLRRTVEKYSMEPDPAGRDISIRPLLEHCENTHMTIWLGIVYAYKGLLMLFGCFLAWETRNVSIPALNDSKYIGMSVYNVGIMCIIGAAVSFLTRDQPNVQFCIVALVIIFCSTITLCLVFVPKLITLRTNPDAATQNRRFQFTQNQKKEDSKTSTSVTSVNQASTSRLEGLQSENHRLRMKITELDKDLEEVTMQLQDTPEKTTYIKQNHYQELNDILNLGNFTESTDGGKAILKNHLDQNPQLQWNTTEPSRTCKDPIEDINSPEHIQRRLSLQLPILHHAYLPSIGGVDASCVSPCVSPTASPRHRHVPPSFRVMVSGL

GABA shift Log [EC50(GABA + 10 μM cp)/EC50(GABA alone)] [3] | Emax [3] [%] | EC50 [3] [µM] | Compound | further results
 |  |  | NCC(CC(=O)O)c1ccc(Cl)cc1 (stereo not drawn) [Baclofen, β-chlorophenyl GABA] | side effects (spontaneous locomotor activity, rotarod, body temperature, traction test) ([1]; 2.5-15 mg/kg): showed these side effects
 |  |  | CC(C)(CO)Cc1cc(C(C)(C)C)c(O)c(C(C)(C)C)c1 [CGP7930, 2,6-di-tert-butyl-4-(3-hydroxy-2,2-dimethyl-propyl)-phenol] | decreasing cocaine self-administration [2]: effective
−0.75 | 46 | 2.2 | CCCCCCSc1nc(C)cc(CN2CCOCC2)n1 [Example 1, 4-(2-Hexylsulfanyl-6-methyl-pyrimidin-4-ylmethyl)-morpholine] | 
−0.55 | 52 | 1.7 | CCCCCSc1nc(C)cc(CN2CCOCC2)n1 [Example 2, 4-(6-Methyl-2-pentylsulfanyl-pyrimidin-4-ylmethyl)-morpholine] | 
−0.60 | 41 | 4.2 | Cc1cc(CN2CCOCC2)nc(SCc2ccc(C(C)(C)C)cc2)n1 [Example 11, 4-[2-(4-tert-Butyl-benzylsulfanyl)-6-methyl-pyrimidin-4-ylmethyl]-morpholine] | 
−0.50 | 48 | 8.5 | CCCCCCSc1nc(C)cc(CN2CCCC2)n1 [Example 16, 2-Hexylsulfanyl-4-methyl-6-pyrrolidin-1-ylmethyl-pyrimidine] | 
−0.69 | 60 | 9.6 | CCCCCCSc1nc(C)cc(CN2CCCCC2C)n1 (stereo not drawn) [Example 31, 2-Hexylsulfanyl-4-methyl-6-(2-methyl-piperidin-1-ylmethyl)-pyrimidine] | 
−0.76 | 74.2 | 8.2 | CCCCCCSc1nc(C)cc(CN2C(C)CCCC2C)n1 (stereo not drawn) [Example 37, 4-(2,6-Dimethyl-piperidin-1-ylmethyl)-2-hexylsulfanyl-6-methyl-pyrimidine] | 
−0.71 | 61 | 6.3 | CCCCCCSc1nc(C)cc(CN2[C@H](C)CCC[C@@H]2C)n1 [Example 38, 4-(cis-2,6-Dimethyl-piperidin-1-ylmethyl)-2-hexylsulfanyl-6-methyl-pyrimidine] | 
−0.48 | 62 | 6.4 | CCCCCCSc1nc(CN2CCOCC2)cc(C(F)(F)F)n1 [Example 39, 4-(2-Hexylsulfanyl-6-trifluoromethyl-pyrimidin-4-ylmethyl)-morpholine] | 
−0.86 | 60 | 4.1 | CCCCCCSc1nc(CC)cc(CN2CCOCC2)n1 [Example 41, 4-(2-Hexylsulfanyl-6-ethyl-pyrimidin-4-ylmethyl)-morpholine] | 
−0.70 | 49 | 4.4 | CCCCCCSc1nc(C)cc(C(C)N2CCOCC2)n1 (stereo not drawn) [Example 43, 4-[1-(2-Hexylsulfanyl-6-methyl-pyrimidin-4-yl)-ethyl]-morpholine] | 
 |  |  | CSc1nc(NC2CCCC2)c([N+](=O)[O-])c(NC2CCCC2)n1 [GS39783, N,N_-dicyclopentyl-2-methylsulfanyl-5-nitro-pyrimidine-4,6-diamine] | decreasing cocaine self-administration [2]: effective; anxiolytic-like effects [4]: exhibited anxiolytic-like effects; effect on spontaneous locomotor activity, rotarod, body temperature and traction test ([1]; 0.1-200 mg/kg): no effect; effect on cognition performance [5]: did not have any effect

Compound | GABA shift Log [EC50(GABA + 10 μM cp)/EC50(GABA alone)] [3] | Emax [3] [%] | EC50 [3] [µM] | further results
CCCCCCSc1nc(C)cc(CN2C[C@@H]3C[C@@H](C2)c2cccc(=O)n2C3)n1 [Example 35, (1S,5S)-3-(2-Hexylsulfanyl-6-methyl-pyrimidin-4-ylmethyl)-1,2,3,4,5,6-hexahydro-1,5-methano-pyrido [1,2-a][1,5]diazocin-8-one] | −0.92 | 62 | 1.8 | 
